Activity calls are given as the source filed them. No cut-off for these calls is given here.
Experiments:
[1] = molecular target: T1, Phosphatidylcholine transfer protein (Homo sapiens, UniProt Q9UKL6); experiment: Inhibition of N-terminal His-tagged human PC-TP expressed in Escherichia coli using NBD-PC and donor and acceptor small unilamellar vesicles by fluorescence quench assay
T1 sequence (Q9UKL6 whole entry): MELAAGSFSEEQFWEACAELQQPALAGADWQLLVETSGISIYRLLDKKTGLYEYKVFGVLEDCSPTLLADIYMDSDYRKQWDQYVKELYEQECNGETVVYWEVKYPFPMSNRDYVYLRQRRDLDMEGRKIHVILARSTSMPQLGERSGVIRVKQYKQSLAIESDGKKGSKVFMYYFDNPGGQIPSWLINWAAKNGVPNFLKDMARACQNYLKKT

[2] = molecular target: T2, Phosphatidylcholine transfer protein (Homo sapiens) (UniProt Q9UKL6); experiment: Inhibition of PC-TP in human hepatocytes assessed as enhancement of insulin signaling by measuring p-AMPK-alpha T172 levels at 0.05 to 0.1 uM incubated for 60 mins by immunoblot analysis; type: cell-based
T2 sequence (whole entry): T1 sequence (Q9UKL6 whole entry)

[3] = molecular target: T2, Phosphatidylcholine transfer protein (Homo sapiens); experiment: Inhibition of PC-TP in human hepatocytes assessed as enhancement of insulin signaling by measuring p-S6K T389 levels at 0.05 to 0.1 uM incubated for 60 mins by immunoblot analysis; type: cell-based
[4] = molecular target: T2, Phosphatidylcholine transfer protein (Homo sapiens); experiment: Inhibition of PC-TP in human hepatocytes assessed as enhancement of insulin signaling by measuring p-AKT S473 levels at 0.05 to 0.1 uM incubated for 60 mins by immunoblot analysis; type: cell-based
[5] = molecular target: T2, Phosphatidylcholine transfer protein (Homo sapiens); experiment: Inhibition of PC-TP in human hepatocytes assessed as enhancement of insulin signaling by measuring p-GSK-3beta S9 levels at 0.05 to 0.1 uM incubated for 60 mins by immunoblot analysis; type: cell-based
[6] = molecular target: T2, Phosphatidylcholine transfer protein (Homo sapiens); experiment: Binding affinity to N-terminal His-tagged human PC-TP expressed in Escherichia coli at 5 to 75 uM in presence of TCNQ by fluorescent pyrene-labeled phosphatidylcholine based displacement assay
[7] = molecular target: T2, Phosphatidylcholine transfer protein (Homo sapiens); experiment: Binding affinity to N-terminal His-tagged human PC-TP expressed in Escherichia coli assessed as relative binding constant K(rel) at 5 to 75 uM in presence of TCNQ by fluorescent pyrene-labeled phosphatidylcholine based displacement assay relative to control

IC50 [1] [µM]	inhibition [2]	inhibition [3]	inhibition [4]	inhibition [5]	Activity [6]	Ratio [7]	SMILES
100							Cc1ccc(NC(=O)C(Sc2cccc[n+]2[O-])c2ccccc2)cc1Cl (stereo unspecified)
	Active	Active	Active	Active			O=C(Nc1cc(Cl)cc(Cl)c1)C(Sc1cccc[n+]1[O-])c1ccccc1 (stereo unspecified)
	Active	Active	Active	Active	Dose-dependent effect	1.1	Cc1cc(C)nc(NS(=O)(=O)c2ccc(NC(=O)NC(=O)c3ccc(Cl)cc3Cl)cc2)n1

From ChEMBL document CHEMBL4482317, “Phosphatidylcholine transfer protein inhibitors” (2017)
